Legend:
[1] = DPPH free radical scavenging assay; details: read-out: DPPH IC50; 0.1 mM DPPH, 30 min, 517 nm; mean ± SD
[2] = test system: HEK-293 (normal human embryonic kidney) cells; test: Cytotoxicity assay; type: cell-based; details: HEK293, 48 h, read-out: IC50 (HEK-293)
[3] = test system: Plasmodium falciparum 3D7; test: Antimalarial assay; type: cell-based
[4] = test system: MCF-7 (human breast adenocarcinoma) cells; test: Cytotoxicity assay; type: cell-based; details: MCF7, 48 h, read-out: IC50 (MCF-7)

SMILES	IC50 [1] [µM]	IC50 [2] [µM]	IC50 ([3]; Plasmodium falciparum, 3D7, 72 h, read-out: Antimalarial IC50) [µM]	Selectivity index (HEK/IC50) ([3]; SI = IC50 (HEK-293)/IC50 (antimalarial))	IC50 [4] [µM]
O=C1O[C@H]([C@@H](O)CO)C(O)=C1O [Ascorbic acid, reference compound]	5.21 ± 0.06				
CC(=NNC(=S)NN=C(C(=NO)c1ccccc1)c1ccccc1)c1ccccc1C [HBMT-MA7, N'-[2-(Hydroxyimino)-1,2-diphenylethylidene]-2-[1-(o-tolyl)ethylidene]hydrazine-1-carbothiohydrazide]	10.5 ± 0.19	68.2 ± 1.8	2.91 ± 0.14	23.4	29.7 ± 1

— article PMC12559995 (RSC Advances, 2025)
